The test system of assay [1] is Staphylococcus aureus ATCC 6538. The assay is described as follows: Serial broth microdilution with agar sub-cultivation. The class given is cell-based. The settings on record: for MIC: ATCC6538, aerial parts extracts, TTC detection.
The test system of assay [2] is Staphylococcus aureus ATCC 29213. The description is as above. Type of assay: cell-based. Conditions: for MIC: ATCC29213, aerial parts extracts, TTC detection; for MBC: ATCC29213, agar sub-cultivation.
Assay [3] concerns Escherichia coli ATCC 10536. Described as above. The class given is cell-based. The settings on record: for MIC: ATCC10536, aerial parts extracts, TTC detection, n.d. = growth inhibition not detected (0.18–11.36 mg/mL).
In assay [4] the test system is Pseudomonas aeruginosa ATCC 27853. Described as above. The class given is cell-based. Conditions: for MIC: ATCC27853, aerial parts extracts, TTC detection, n.d. = growth inhibition not detected (0.36–22.73 mg/mL).
Assay [5] concerns S. aureus strains (MSSA and MRSA). In words: Serial broth microdilution, S. aureus strains taken together. The class given is cell-based. The settings on record: Staphylococcus aureus; reference standard; read-out: MIC, anti-staphylococcal activity.
The next assay has as its target α-glucosidase. The settings on record: isolated compounds of Clerodendrum bungei; cited from earlier work.
For assay [6] the following is noted: read-out: DPPH radical scavenging capacity IC50; cited from earlier work. Background: DPPH is a stable violet radical that fades when it is reduced.
The subject of a further assay is COX-1. Further details: method as in PMID 11849848. Conditions: cited from earlier work.
For a further assay, the system named is COX-2. Details: method as in PMID 11849848. Conditions: cited from earlier work.
Another assay concerns S. aureus. The settings on record: cited from earlier work.
Another assay concerns P. aeruginosa. The settings on record: given for both compounds; cited from earlier work.
The subject of a further assay is E. faecalis. The settings on record: range given for both compounds; cited from earlier work.
A further assay concerns E. coli. Details: method as in doi:10.1016/j.sajb.2010.04.010. Conditions: range given for both compounds; cited from earlier work.
Another assay relates to five MRSA strains. Details: method as in PMID 18404351. Conditions: cited from earlier work.
A further assay has as its system MDA-MB-231. Further details: method as in PMID 34719192. The settings on record: cited from earlier work.
In assay [7] the test system is Bacillus cereus ATCC 11778. The assay is described as follows: Well diffusion method. Type of assay: cell-based. Conditions: aerial parts extracts c = 50 mg/mL; antibiotics c = 0.2 mg/mL; n.d. = growth inhibition not detected. How it is done: (§1) Antibacterial activity was evaluated using the following strains: Bacillus cereus American Type Culture Collection (ATCC, Manassas, VA, USA) 11778, B. subtilis ATCC 6633, Enterococcus faecalis ATCC 29212, Staphylococcus aureus ATCC 6538 and S. aureus ATCC 29213 among Gram-positive and Escherichia coli ATCC 10536, Klebsiella pneumoniae MFBF 10402 and Pseudomonas aeruginosa ATCC 27853 among Gram-negative bacterial species. Additionally, eight clinical isolates of S. aureus, including methicillin-resistant S. aureus (MRSA MFB F101, MRSA MFBF 124, MRSA MFBF 154, MRSA MFBF 164, and MRSA MFBF 177) and methicillin susceptible S. aureus (S. aureus MFBF 505, S. aureus MFBF 10661 and S. aureus MFBF 10666) were used. Bacterial strains were sourced from the Collection of Microorganisms, Department of Microbiology, Faculty of Pharmacy and Biochemistry, University of Zagreb. Inoculums were prepared from overnight cultures that were cultured on tryptic soy agar (TSA) at 37 °C, suspended in sterile physiological saline, with the optic density adjusted to 0.5 McFarland (1.5 × 10^8 colony-forming units (CFUs)/mL) using a densitometer (Densimat, BioMérieux, Marcy-l’Étoile, France). Right before cultivation in nutrient medium, 1 mL of each prepared suspension was dissolved with 9 mL physiological saline. Prior to cell treatment, sample stock solutions in distilled water (c = 50 mg/mL) were filtered through Chromafil cellulose acetate filters of pore size 0.22 μm (Macherey-Nagel, Düren, Germany).
(§2) Well diffusion method was carried out according to the European Pharmacopoeia. Inoculums (100 μL) were transferred to individual petri dishes with 4 mm thick Müller–Hinton agar and equally distributed across agar surface with a glass L-stick. Wells were prepared using sterile stainless-steel cylinders (d = 6 mm) and filled with 50 μL of methanolic aerial parts extract solution (c = 50 mg/mL) in distilled water. Plates were incubated at 37 °C for 18 h in the dark. Diameters of the zones of inhibition of bacterial growth (mm) were read from the diameters of transparent zones around the wells. Gentamicin and norfloxacin (c = 0.2 mg/mL) were used as positive controls.
(A growth-free zone around the sample is the usual read-out of agar diffusion tests.)

The subject of assay [8] is Bacillus subtilis ATCC 6633. In words: Well diffusion method. Type of assay: cell-based. The settings on record: aerial parts extracts c = 50 mg/mL; antibiotics c = 0.2 mg/mL; n.d. = growth inhibition not detected. How it is done: as §1, §2
The subject of assay [9] is Enterococcus faecalis ATCC 29212. The assay is described as follows: Well diffusion method. The class given is cell-based. The settings on record: aerial parts extracts c = 50 mg/mL; antibiotics c = 0.2 mg/mL; n.d. = growth inhibition not detected. The protocol: as §1, §2
For assay [10], the system named is Escherichia coli ATCC 10536. The assay is described as follows: Well diffusion method. Type of assay: cell-based. The settings on record: aerial parts extracts c = 50 mg/mL; antibiotics c = 0.2 mg/mL; n.d. = growth inhibition not detected. The protocol:
as §1, §2

Assay [11] deals with Klebsiella pneumoniae MFBF 10402. In words: Well diffusion method. The class given is cell-based. The settings on record: aerial parts extracts c = 50 mg/mL; antibiotics c = 0.2 mg/mL; n.d. = growth inhibition not detected. The protocol:
as §1, §2

Assay [12] relates to Pseudomonas aeruginosa ATCC 27853. In words: Well diffusion method. The class given is cell-based. Conditions: aerial parts extracts c = 50 mg/mL; antibiotics c = 0.2 mg/mL; n.d. = growth inhibition not detected. The protocol: as §1, §2
Assay [13] deals with Staphylococcus aureus ATCC 6538. The assay is described as follows: Well diffusion method. The class given is cell-based. The settings on record: aerial parts extracts c = 50 mg/mL; antibiotics c = 0.2 mg/mL. How it is done: as §1, §2
The test system of assay [14] is Bacillus cereus ATCC 11778. In words: Serial broth microdilution with agar sub-cultivation. The class given is cell-based. On the technique in general: Broth dilution looks for growth in wells or tubes with falling amounts of substance.
The test system of assay [15] is Bacillus subtilis ATCC 6633. The description is as above. The class given is cell-based.
In assay [16] the test system is Enterococcus faecalis ATCC 29212. Described as above. The class given is cell-based. Conditions: ATCC29212, n.d. = not detected (0.18–11.36 mg/mL).
Assay [17] relates to Klebsiella pneumoniae MFBF 10402. The description is as above. Type of assay: cell-based.

pIC50: −log10 of the molar value. Values after ≈ are worked out from the molar mass of the structure shown. Where only a bound is given, the exact number is not on record here.

Regarding `C[C@@H]1O[C@@H](O[C@@H]2[C@@H](O)[C@H](OCCc3ccc(O)c(O)c3)O[C@H](CO)[C@H]2OC(=O)/C=C/c2ccc(O)c(O)c2)[C@H](O)[C@H](O)[C@H]1O` [Verbascoside, Verbascoside (Acteoside)], the MIC in assay [1], in [2], in assay [3], in assay [4] and in assay [5] was 227 µg/mL (≈ 364 µM) each time. Also, the MBC – broadly, the smallest concentration meeting the test's criterion for killing – in [2] stood at 227 µg/mL (≈ 364 µM). The pIC50 (commonly −log10 of the IC50, conventionally taken in molar units) is 3.30 at α-glucosidase; 4.24 in assay [6]; less than 3.00 in the assay with COX-1; 3.16 in the assay with COX-2; 6.59 to 6.80 in the assay with MDA-MB-231. The “MIC, anti-staphylococcal activity” value with S. aureus was 60 µg/mL (≈ 96.1 µM). In addition, the “MIC against P. aeruginosa” value in the assay with P. aeruginosa is 250 µg/mL (≈ 400 µM). Also, the “MIC against E. faecalis” value in the assay on E. faecalis is 100 to 150 µg/mL. The “MIC against E. coli” value in the assay on E. coli was 100 to 250 µg/mL. Further, in the assay on five MRSA strains, the “MIC against five MRSA strains” value was 64 to 256 µg/mL.

Turning to `CNC(C)C1CCC(N)C(OC2C(N)CC(N)C(OC3OCC(C)(O)C(NC)C3O)C2O)O1` (centres unmarked) [Gentamicin, gentamicin], the growth inhibition zone in [7] is on record as 22.3 ± 0.6 mm; in assay [8], 24.7 ± 0.6 mm; in assay [9], 15.0 ± 0.0 mm; in assay [10], 23.3 ± 0.6 mm; in assay [11], 21.0 ± 0.0 mm; in assay [12], 24.3 ± 0.6 mm. The growth inhibition zone in [13] is reported as 24.0 ± 0.0 mm. Besides, the MIC (in general, the least concentration at which growth counts as inhibited) in [14] (ATCC11778, aerial parts extracts, TTC detection, n.d. = growth inhibition not detected (0.18–11.36 mg/mL)) is 1.5 µg/mL (≈ 3.14 µM); in [15] (ATCC6633, aerial parts extracts, TTC detection, n.d. = growth inhibition not detected (0.18–11.36 mg/mL)), less than 0.1 µg/mL; in assay [1], 0.6 µg/mL (≈ 1.26 µM); in assay [2] it was 0.3 µg/mL (≈ 0.628 µM); in assay [3], 0.1 µg/mL (≈ 0.209 µM); in assay [17] (MFBF10402, aerial parts extracts, TTC detection, n.d. = growth inhibition not detected (0.18–11.36 mg/mL)), 0.3 µg/mL (≈ 0.628 µM). Moreover, in assay [4], the MIC came out at 1.1 µg/mL (≈ 2.3 µM). The MBC stood at 1.5 µg/mL (≈ 3.14 µM) in assay [14] (ATCC11778, agar sub-cultivation, n.d. = not detected (0.18–11.36 mg/mL)); 0.2 µg/mL (≈ 0.419 µM) in [15] (ATCC6633, agar sub-cultivation, n.d. = not detected (0.18–11.36 mg/mL)); 4.6 µg/mL (≈ 9.63 µM) in assay [16]; 0.8 µg/mL (≈ 1.68 µM) in assay [1] (ATCC6538, agar sub-cultivation, n.d. = not detected); 0.7 µg/mL (≈ 1.47 µM) in assay [2]; 1.5 µg/mL (≈ 3.14 µM) in assay [3] (ATCC10536, agar sub-cultivation, n.d. = not detected (0.18–11.36 mg/mL)). Also, the MBC in [17] (MFBF10402, agar sub-cultivation, n.d. = not detected (0.18–11.36 mg/mL)) was found to be 0.8 µg/mL (≈ 1.68 µM); in [4] (ATCC27853, agar sub-cultivation, n.d. = not detected (0.36–22.73 mg/mL)), 3 µg/mL (≈ 6.28 µM).

Values taken from publication PMC9146695, “Globularia alypum L. and Related Species: LC-MS Profiles and Antidiabetic, Antioxidant, Anti-Inflammatory, Antibacterial and Anticancer Potential” (Pharmaceuticals, 2022).
